Test systems include DU-145 prostate; COLO 205 colon; NCI-H226 lung; CCRF-CEM leukemia; OVCAR-8 ovarian; SK-MEL-5 melanoma; EKVX NSCLC; HT29 colon; BT-549 breast; SF-295 CNS.
Common to all, as to experiment: NCI-60 cell line screen, 48 h

These results are taken from PubChem BioAssay (NCI).

“And” between values parts separate entries of the source, which are not always exact repeats. Identical values can stand only once.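 Dose response: 5 concentrations. Exposure: 48 h. Format: 96-well plates. Endpoint: linear interpolation; highest concentration if not reached. Abbreviation: GI50, concentration required for 50% inhibition of growth. TGI is the concentration that stops growth completely.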

As for `OCC(O)C(O)C(O)C(O)c1nnc2c(-c3ccccc3)nc3ccccc3n12` (stereo not given), the GI50 was over 100 µM with DU-145 prostate; 74 µM in the assay with COLO 205 colon; over 100 µM in the assay on NCI-H226 lung; over 100 µM in the assay with CCRF-CEM leukemia; 53.5 µM with OVCAR-8 ovarian; 70.3 µM with SK-MEL-5 melanoma. For the same compound, the GI50 in the assay on EKVX NSCLC was over 100 µM; with HT29 colon, 86.3 µM; in the assay with BT-549 breast, 56.4 µM; with SF-295 CNS, over 100 µM. In addition, the TGI in the assay with DU-145 prostate, in the assay with COLO 205 colon, in the assay with NCI-H226 lung, in the assay with CCRF-CEM leukemia, in the assay on OVCAR-8 ovarian and in the assay with SK-MEL-5 melanoma was over 100 µM in each case. Further, the TGI in the assay with EKVX NSCLC, with HT29 colon, in the assay on BT-549 breast and with SF-295 CNS was over 100 µM in each case.
For the compound `CCn1c(-c2nonc2N)nc2cnc(Oc3cccc(NC(=O)c4ccc(N(C)C)cc4)c3)cc21`, the GI50 in the assay with DU-145 prostate is over 21.7 µM; with COLO 205 colon, over 13.5 µM; in the assay on NCI-H226 lung it was over 25 µM; with CCRF-CEM leukemia, 1.82 µM; in the assay on OVCAR-8 ovarian it was over 25 µM; in the assay on SK-MEL-5 melanoma, over 25 µM. Moreover, the GI50 with EKVX NSCLC is 2.87 µM; with HT29 colon, over 25 µM; with BT-549 breast, 0.859 µM; in the assay on SF-295 CNS it was 12 µM. Moreover, the TGI in the assay on DU-145 prostate, in the assay on COLO 205 colon, in the assay with NCI-H226 lung, in the assay on CCRF-CEM leukemia, in the assay on OVCAR-8 ovarian and with SK-MEL-5 melanoma was over 25 µM in each case. In addition, the TGI in the assay with EKVX NSCLC, in the assay on HT29 colon, with BT-549 breast and in the assay with SF-295 CNS was over 25 µM throughout.
As to `Cn1c(=O)c2c(nc(N/N=C/c3ccccc3C(=O)O)n2C)n(C)c1=O`, the TGI in the assay with DU-145 prostate, in the assay with COLO 205 colon, in the assay with NCI-H226 lung, in the assay with CCRF-CEM leukemia, in the assay with OVCAR-8 ovarian and with SK-MEL-5 melanoma was over 100 µM each time. For the same compound, the TGI in the assay on EKVX NSCLC, in the assay with HT29 colon, in the assay on BT-549 breast and with SF-295 CNS was over 100 µM throughout.
`Cc1nc2ccccc2c(=O)n1/N=C(\N=Nc1cc(Cl)ccc1Cl)c1ccccc1`: the TGI in the assay on DU-145 prostate, in the assay with COLO 205 colon, with NCI-H226 lung, with CCRF-CEM leukemia, in the assay on OVCAR-8 ovarian and in the assay on SK-MEL-5 melanoma was over 100 µM each time. For the same compound, the TGI was over 100 µM in the assay with EKVX NSCLC, over 88.7 µM in the assay with HT29 colon, over 100 µM with BT-549 breast and over 100 µM in the assay on SF-295 CNS.
Take `CC[C@H]1OC(=O)[C@H](C)[C@@H](O[C@H]2C[C@@](C)(OC)[C@@H](O)[C@H](C)O2)[C@H](C)[C@@H](O[C@@H]2O[C@H](C)C[C@H](N(C)C)[C@H]2O)[C@](C)(OC)C/C(C)=C2/O[C@@]1(C)C=C2C`: the GI50 is 1.82 µM in the assay on DU-145 prostate; 1.68 µM in the assay on COLO 205 colon; 2.12 µM in the assay on NCI-H226 lung; 2.22 µM in the assay with CCRF-CEM leukemia; 2.2 µM with OVCAR-8 ovarian; 1.79 µM in the assay with SK-MEL-5 melanoma. The GI50 was 1.71 µM in the assay on EKVX NSCLC, 1.83 µM in the assay with HT29 colon, 1.66 µM in the assay on BT-549 breast and 1.85 µM in the assay on SF-295 CNS. In addition, the TGI was 3.39 µM in the assay on DU-145 prostate; 3.69 µM in the assay with COLO 205 colon; 4.42 µM in the assay on NCI-H226 lung; 5.62 µM in the assay on CCRF-CEM leukemia; 5.75 µM in the assay on OVCAR-8 ovarian; 3.21 µM in the assay with SK-MEL-5 melanoma. Further, the TGI in the assay with EKVX NSCLC was 3.26 µM; in the assay on HT29 colon, 4.14 µM; in the assay on BT-549 breast, 3.28 µM; with SF-295 CNS it was 3.35 µM.
Consider `O=c1cccc(Cl)[nH]1`, for which the TGI in the assay with DU-145 prostate, in the assay with COLO 205 colon, in the assay on NCI-H226 lung, in the assay with CCRF-CEM leukemia, in the assay on OVCAR-8 ovarian and in the assay with SK-MEL-5 melanoma was over 100 µM throughout. Also, the TGI in the assay on EKVX NSCLC, in the assay on HT29 colon, in the assay with BT-549 breast and in the assay on SF-295 CNS was over 100 µM in each case.
For the compound `Cc1cc(NN=C(c2ccc(O)cc2)c2ccc(O)cc2)c([N+](=O)[O-])cc1[N+](=O)[O-]`, the GI50 in the assay with DU-145 prostate was 9.83 µM; in the assay with COLO 205 colon it was 5.87 µM; in the assay with NCI-H226 lung, 7.76 µM; in the assay with CCRF-CEM leukemia, 3.33 µM; in the assay on OVCAR-8 ovarian it was 4.08 µM; in the assay with SK-MEL-5 melanoma, 0.308 µM. Besides, the GI50 with EKVX NSCLC is 4.54 µM; in the assay on HT29 colon, 5.98 µM; with BT-549 breast, 11.4 µM; with SF-295 CNS it was 4.91 µM. In addition, the TGI with DU-145 prostate was 29.5 µM; in the assay with COLO 205 colon, 40.5 µM; with NCI-H226 lung it was 40.1 µM; in the assay on CCRF-CEM leukemia, 34 µM; with OVCAR-8 ovarian, over 100 µM; with SK-MEL-5 melanoma it was 3.74 µM. The TGI with EKVX NSCLC is 26.6 µM; with HT29 colon it was over 100 µM; with BT-549 breast, 35.5 µM; with SF-295 CNS it was 22.2 µM.
In the case of `COc1cc2ncnc(Oc3cccc(NC(=O)Nc4cc(C(C)(C)C(F)(F)F)on4)c3)c2cc1OC`, the GI50 in the assay with DU-145 prostate was 3.31 µM and 3.84 µM; with COLO 205 colon it was 0.103 µM and 0.153 µM; in the assay on NCI-H226 lung, 1.13 µM and 1.67 µM; in the assay with CCRF-CEM leukemia it was 3.06 µM and 3.26 µM; in the assay on OVCAR-8 ovarian it was 2.54 µM and 3.09 µM; in the assay on SK-MEL-5 melanoma it was 1.3 µM and 1.45 µM. Also, the GI50 in the assay on EKVX NSCLC was 1.52 µM; with HT29 colon, 0.197 µM and 0.215 µM; in the assay on BT-549 breast, 2.4 µM and 3.89 µM; with SF-295 CNS, 2.91 µM and 2.98 µM. Further, the TGI was over 58.5 µM in the assay on DU-145 prostate; 5.71 µM and > 5.57 µM in the assay on COLO 205 colon; 33.7 µM and > 10 µM in the assay with NCI-H226 lung; over 100 µM in the assay with CCRF-CEM leukemia; 21.5 µM and > 10 µM with OVCAR-8 ovarian; 3.01 µM and 3.67 µM in the assay on SK-MEL-5 melanoma. For the same compound, the TGI with EKVX NSCLC was over 10 µM; with HT29 colon, 6.9 µM and > 10 µM; with BT-549 breast, 8.78 µM and > 10 µM; with SF-295 CNS it was 13.1 µM and > 10 µM.
